Results from US7049282B2, “Inhibition of complement action” (Duke University, priority 1999, dated 2006).

System: complement binding to the sheep erythrocyte targets
Experiment: standard assay of inhibition of complement binding (Miletic et al): sheep erythrocytes sensitized with rabbit antibody, C8D human serum
Format: biochemical
Excerpt: In addition to the peptides and derivatives described above, the invention also relates to mimetics of the peptides that have the above-described complement blocking function. The mimetics can be identified using protocols available in the art, including those described by Miletic et al, J. Immunology 156:749 (1996)) which are based on the binding of complement to antibody-sensitized red blood cells and on the binding of complement to solid phase immune complexes. As described below, these protocols can be used to identify complement-blocking peptides and derivatives as well.
Peptides, derivatives and mimetics that block complement function can be identified by incubating a target for an active complement protein, for example, antibody-coated particles (e.g., antibody-sensitized red blood cells) or immune complexes (e.g., bovine serum albumin-anti-bovine serum complexes) bound to a solid support, with the a complement protein or a complement activating system (e.g., containing C3 or C4 or mixtures of complement proteins such as found in serum (e.g., C8 or C9 deficient serum)), in the presence and in the absence of the test agent (peptide, derivative or mimetic). […] The amount of binding can be determined using any of a variety of approaches, including using radiolabeled anti-complement protein IgG. […]

## WESNGQPENN
IgG fragments and peptides isolated from digests
  activity in inhibiting complement binding: highly active
Synthesized peptides
  activity in complement inhibition: highly active
